# Counter-ions that a name gives are not always drawn.
# Tests used:
# LSD1 = target: T1, LSD1 (Homo sapiens, UniProt O60341); test: Biochemical assay for LSD-1 activity (luminescence, H3K4 dimethylated peptide substrate); details: average of two or more tests; 30 min preincubation of enzyme and compound; read-out: LSD1 PIC50 MEAN (converted)
# T1 construct: made in house
# Method: Biochemical Assay for LSD-1 Activity
# The LSD-1 luminescence assay is performed in a buffer containing 25 mM Tris, pH 7.5, 50 mM potassium chloride, 0.02% heat-denatured BSA, 2 mM CHAPS and milliQ ultrapure water. […] The enzyme and test compound are allowed to incubate together for 30 minutes at room temperature. Two microliters of the substrate mix are then added to each well of the plate to initiate the reaction. The plates are covered, protected from light and allowed to incubate for two hours at room temperature. Then, 4 uL of HyPerBlu peroxide detection luminescence reagent (Lumigen/Beckman Coulter, cat# HPB-00005) is added to each well to quench the demethylase reaction and generate the peroxide-dependent luminescence signal. The plates are then incubated for 15-30 minutes in the dark at room temperature prior to being read for Luminescence using a Perkin Elmer Viewlux plate reader. Percent inhibition is calculated based on no compound and no enzyme controls, and inhibition curves are then plotted to determine PIC50 values.
# MAO-B = target: T2, MAO-B (Homo sapiens, UniProt P27338); test: Biochemical assay for MAO-B activity (FLINT, benzylamine/amplex red); details: average of two or more tests; 30 min preincubation of enzyme and compound; read-out: MAOB PIC50 MEAN (converted)
# T2 construct: purchased Gentest-BD Biosciences 456284
# T2 sequence (P27338 1-520): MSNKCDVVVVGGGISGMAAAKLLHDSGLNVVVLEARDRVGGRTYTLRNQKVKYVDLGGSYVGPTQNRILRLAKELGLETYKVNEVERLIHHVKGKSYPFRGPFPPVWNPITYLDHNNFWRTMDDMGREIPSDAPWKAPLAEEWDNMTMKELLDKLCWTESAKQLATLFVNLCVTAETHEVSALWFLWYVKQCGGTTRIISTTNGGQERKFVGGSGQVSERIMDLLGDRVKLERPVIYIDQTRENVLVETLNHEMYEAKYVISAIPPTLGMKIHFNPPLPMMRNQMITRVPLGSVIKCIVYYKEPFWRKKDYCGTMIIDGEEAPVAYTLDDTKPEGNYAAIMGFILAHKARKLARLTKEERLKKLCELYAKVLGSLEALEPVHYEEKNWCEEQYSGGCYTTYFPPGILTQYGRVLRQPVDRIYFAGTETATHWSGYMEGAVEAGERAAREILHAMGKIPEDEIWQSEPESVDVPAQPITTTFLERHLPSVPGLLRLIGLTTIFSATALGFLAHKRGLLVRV
# Method: Biochemical Assay for MAO-B Activity
# The MAO-B FLINT assay is performed in a buffer containing 50 mM potassium phospate, pH 7.4, in milliQ ultrapure water. […] The enzyme and test compound are allowed to incubate together for 30 minutes at room temperature. Five microliters of the substrate mix are then added to each well of the plate to initiate the reaction. The plates are covered, protected from light and allowed to incubate for one hour at room temperature. […] Percent inhibition is calculated based on no compound and no enzyme controls, and inhibition curves are then plotted to determine PIC50 values.
IC50 (LSD1) [µM],IC50 (MAO-B) [µM],SMILES
0.0251,79.4,"O=C(O)CCN1CC[C@H](CN[C@@H]2C[C@H]2c2ccccc2)C1 [Example 150, 3-((R)-3-((((1R,2S)-2-Phenylcyclopropyl)amino)methyl)pyrrolidin-1-yl)propanoic acid]"
0.00794,31.6,"OB(O)c1ccc(CN2CCC(CN[C@@H]3C[C@H]3c3ccccc3)CC2)cc1 (relative stereo) [Example 57, (4-((4-(((trans-2-phenylcyclopropyl)amino)methyl)piperidin-1-yl)methyl)phenyl)boronic acid]"
0.02,12.6,"c1ccc(C2C[C@@H]2NCC2CNCCO2)cc1 (stereo in doubt) [Example 25, N-(2-Morpholinylmethyl)-trans-2-phenylcyclopropanamine]"
0.0316,0.631,"O=C(OCc1ccccc1)N1CCC(CN[C@@H]2C[C@H]2c2ccccc2)CC1 (relative stereo) [Example 18, Benzyl 4-(((trans-2-phenylcyclopropyl)amino)methyl)piperidine-1-carboxylate]"
0.631,7.94,"CC(C)(C)OC(=O)N1CCC(CN[C@H]2C[C@@H]2c2ccccc2)CC1 [Example 3, 1,1-Dimethylethyl 4-({[(1S,2R)-2-phenylcyclopropyl]amino}methyl)-1-piperidinecarboxylate]"
0.1,7.94,"O=C(O)CCN1CCC(CN[C@@H]2C[C@H]2c2ccccc2)CC1 [Example 71, 3-(4-((((1R,2S)-2-Phenylcyclopropyl)amino)methyl)piperidin-1-yl)propanoic acid]"
0.00631,25.1,"CN1CCC(CN[C@@H]2C[C@H]2c2ccccc2)CC1 (relative stereo) [Example 20, [(1-Methyl-4-piperidinyl)methyl][trans-2-phenylcyclopropyl]amine]"
0.0126,31.6,"O=C(O)c1ccc(CCCN2CCC(CN[C@@H]3C[C@H]3c3ccccc3)CC2)cc1 [Example 30, 4-{3-[4-({[(1R,2S)-2-Phenylcyclopropyl]amino}methyl)-1-piperidinyl]propyl}benzoic acid 2 HCl]"
–,31.6,CN(CC1CCNCC1)[C@H]1CC1c1ccccc1 (some centres unmarked) [Example 19]
0.0158,31.6,"Fc1ccccc1C[N+]1(Cc2ccccc2F)CCC(CN[C@@H]2C[C@H]2c2ccccc2)CC1 (relative stereo) [Example 35, 1,1-Bis(2-fluorobenzyl)-4-(((trans-2-phenylcyclopropyl)amino)methyl)piperidin-1-ium chloride]"
0.00631,25.1,"c1ccc(CN2CCC(CN[C@@H]3C[C@H]3c3ccccc3)CC2)cc1 (relative stereo) [Example 8, [trans-2-Phenylcyclopropyl]{[1-(phenylmethyl)-4-piperidinyl]methyl}amine]"
0.126,39.8,"O=C(c1ccccc1)N1CCC(CN[C@@H]2C[C@H]2c2ccccc2)CC1 (relative stereo) [Example 14, Phenyl(4-(((trans-2-phenylcyclopropyl)amino)methyl)piperidin-1-yl)methanone]"
0.2,63.1,"O=C(O)CN1CCC(CN[C@H]2C[C@@H]2c2ccccc2)CC1 (relative stereo) [Example 27, 2-(4-(((trans-2-phenylcyclopropyl)amino)methyl)piperidin-1-yl)acetic acid]"
2,15.8,"CC(C)(C)OC(=O)N1CCCC(CN[C@H]2CC2c2ccccc2)CC1 (stereo in doubt) [Example 21, 1,1-Dimethylethyl 4-({[trans-2-phenylcyclopropyl]amino}methyl)hexahydro-1H-azepine-1-carboxylate]"
0.0794,15.8,"Cc1noc(C)c1S(=O)(=O)N1CCC(CN[C@@H]2C[C@H]2c2ccccc2)CC1 (relative stereo) [Example 100, trans-N-((1-((3,5-dimethylisoxazol-4-yl)sulfonyl)piperidin-4-yl)methyl)-2-phenylcyclopropanamine]"
0.01,63.1,"CC(N[C@H]1CC1c1ccccc1)C1CCNCC1 (stereo in doubt) [Example 24, [trans-2-Phenylcyclopropyl][1-(4-piperidinyl)ethyl]amine]"
0.0794,100,"c1ccc(C2C[C@@H]2NCC2CCCNCC2)cc1 (stereo in doubt) [Example 22, N-(Hexahydro-1H-azepin-4-ylmethyl)-trans-2-phenylcyclopropanamine]"
0.0158,50.1,"c1ccc([C@@H]2C[C@H]2NCC2CCN(Cc3ccncc3)CC2)cc1 (relative stereo) [Example 33, trans-2-Phenyl-N-((1-(pyridin-4-ylmethyl)piperidin-4-yl)methyl)cyclopropanamine]"
0.0794,25.1,"O=C(O)c1ccc(CN2CC[C@@H](CN[C@@H]3C[C@H]3c3ccccc3)C2)cc1 [Example 28b, 4-{[(3S)-3-({[(1R,2S)-2-Phenylcyclopropyl]amino}methyl)-1-pyrrolidinyl]methyl}benzoic acid]"
0.0251,7.94,"OB1OCc2c(CN3CCC(CN[C@@H]4C[C@H]4c4ccccc4)CC3)cccc21 (relative stereo) [Example 55, 4-((4-(((trans-2-Phenylcyclopropyl)amino)methyl)piperidin-1-yl)methyl)benzo[c][1,2]oxaborol-1(3H)-ol]"
0.158,0.398,"CC(C)(C)OC(=O)N[C@H]1CC[C@H](CN[C@@H]2C[C@H]2c2ccccc2)CC1 (relative stereo) [Example 9, 1,1-Dimethylethyl[trans-4-({[trans-2-phenylcyclopropyl]amino}methyl)cyclohexyl]carbamate]"
0.00794,7.94,"N[C@H]1CC[C@H](CN[C@@H]2C[C@H]2c2ccccc2)CC1 (relative stereo) [Example 10, trans-4-({[trans-2-Phenylcyclopropyl]amino}methyl)cyclohexanamine]"
0.158,31.6,"O=C(O)c1ccc(CN2CC[C@H](CN[C@@H]3C[C@H]3c3ccccc3)C2)cc1 [Example 28a, 4-{[(3R)-3-({[(1R,2S)-2-Phenylcyclopropyl]amino}methyl)-1-pyrrolidinyl]methyl}benzoic acid]"
0.00631,0.501,"CS(=O)(=O)c1ccc(CN2CCC(CN[C@@H]3C[C@H]3c3ccccc3)CC2)cc1 (relative stereo) [Example 43, trans-N-((1-(4-(Methylsulfonyl)benzyl)piperidin-4-yl)methyl)-2-phenylcyclopropanamine]"
0.0126,31.6,"OCCN1CCC(CN[C@@H]2C[C@H]2c2ccccc2)CC1 (relative stereo) [Example 11, 2-(4-(((trans-2-Phenylcyclopropyl)amino)methyl)piperidin-1-yl)ethanol]"
0.00631,15.8,"O=S(=O)(Nc1ccc([C@@H]2C[C@H]2NCC2CCNCC2)cc1)c1ccccc1 (relative stereo) [Example 91, N-(4-((trans)-2-((piperidin-4-ylmethyl)amino)cyclopropyl)phenyl)benzenesulfonamide]"
0.00794,39.8,"c1ccc(C2C[C@@H]2NCC2CCCNC2)cc1 (stereo in doubt) [Example 16, [trans-2-Phenylcyclopropyl](3-piperidinylmethyl)amine]"
0.0316,20,"O=C(O)c1ccc(CCN2CCC(CN[C@@H]3C[C@H]3c3ccccc3)CC2)cc1 [Example 123, 4-(2-(4-((((1R,2S)-2-phenylcyclopropyl)amino)methyl)piperidin-1-yl)ethyl)benzoic acid]"
0.316,15.8,"CC(=O)N1CCC(CN[C@@H]2C[C@H]2c2ccccc2)CC1 (relative stereo) [Example 15, 1-(4-(((trans-2-Phenylcyclopropyl)amino)methyl)piperidin-1-yl)ethanone]"

SMILES,IC50 (LSD1) [µM],IC50 (MAO-B) [µM]
"c1ccc([C@@H]2C[C@H]2NCC2CCCCC2)cc1 (relative stereo) [Example 7, trans-N-(Cyclohexylmethyl)-2-phenylcyclopropanamine]",0.158,0.398

# From patent US9795597B2, “Cyclopropylamines as LSD1 inhibitors” (GlaxoSmithKline Intellectual Property (No.2) Limited, priority 2011, dated 2017)
